“Also recorded” adds a separate entry of the source.
Columns and labels:
[1] = GSH arylation rate constants (NMR; UV-vis for fast warheads); format: physicochemical; details: for k: Table S8, rate constants obtained at pH = 7; for k/kref / ΔΔG≠1exp: relative to 4q; for ΔΔG≠1exp: via -RTln(k/kref)
How it was run: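 Second-order rate constants k for GSH arylation derived from pseudo-first-order k′ (warhead:GSH 1:10), by normalized NMR integration of the disappearing warhead signal over 6 h; TMSP internal standard. KPi buffer with 5% d6-DMSO, pH 7.0 and 6.5, 20 °C; UV–vis used for fast warheads. Mean of ≥2 independent runs.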

[2] = Solubility in KPi buffer by NMR with TMSP internal standard; details: 50 mM KPi aqueous buffer, pH 7, aqueous with cosolvent or surfactant or cyclodextrin, kinetic from dmso stock
Description: Stability and solubility assays
transferred to the NMR instrument for acquisition. 1H spectra (16 scans) were recorded every 10 minutes under water suppression conditions. Following acquisition, spectra were analysed using
TopSpin. Normalised integrations of the pyrimidine aromatic 1H signals in the starting material and
product were plotted as a function of time (s), using the TMSP peak as standard for integral
calibration/normalisation and monitoring of compound solubility, allowing extraction of pseudo first
order reaction rate constants (k’). Second order rate constants (k) were back calculated from the ratio
of the pseudo first counterparts and the concentration of thiol in solution.
was confirmed by formation of a single S-arylated product (characteristic 2-alkylthioether signals),
concomitant with formation of the sulfinic acid by -product (leaving group). Hydrolytic stability
assessment was performed at pH 7.0 and pH 8.2 in a similar manner, in the absence of thiol.
Chemoselectivity. Similarly, but replacing GSH by other amino acids , reference 2-
methylsulfonylpyrimidine 4q in 50 mM KPi (pH 8.2) was incubated with 10 equivalents of either Boc-
Lys-OH, L-ser-OMe, N-Ac-Tyr-OH or Proline were used.

β-catenin ARD = biological target: T1, β-catenin ARD (Homo sapiens, UniProt P35222); assay: Differential scanning fluorimetry (DSF); format: binding; details: 100 μM compound; 8 µM β-cat; read-out: Protein thermal stability ΔTm
T1 construct: vector pLipK-ARD (residues 150 – 662) was used; 6xHis-Lip (6xHis, lipoyl domain); made in house; host or cells: E. coli BL21(DE3) pRARE2
T1 sequence (P35222 150-662): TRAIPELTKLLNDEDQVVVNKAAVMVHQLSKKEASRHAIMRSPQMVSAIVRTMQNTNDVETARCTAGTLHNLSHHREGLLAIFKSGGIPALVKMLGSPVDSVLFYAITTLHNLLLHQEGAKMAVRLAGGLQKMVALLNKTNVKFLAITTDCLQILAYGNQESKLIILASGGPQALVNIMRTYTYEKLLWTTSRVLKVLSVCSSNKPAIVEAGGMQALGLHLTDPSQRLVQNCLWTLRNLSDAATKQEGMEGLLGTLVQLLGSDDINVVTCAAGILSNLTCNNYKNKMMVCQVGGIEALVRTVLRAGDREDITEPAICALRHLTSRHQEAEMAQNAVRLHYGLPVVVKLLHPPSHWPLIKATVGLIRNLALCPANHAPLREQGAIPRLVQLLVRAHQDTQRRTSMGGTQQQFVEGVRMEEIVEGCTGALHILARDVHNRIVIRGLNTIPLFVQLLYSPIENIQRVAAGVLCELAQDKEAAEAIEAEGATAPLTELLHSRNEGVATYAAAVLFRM
Description: We also probed the general effect of 2-SPs on protein stability by using differential scanning fluorimetry (DSF). […] Mutants of the 25 kDa DNA-binding domain of the tumor suppressor p53 are notorious for their reduced thermal stability and denaturation/aggregation propensity.[37] The 56 kDa armadillo domain (ARD) of β-catenin mediates canonical Wnt signaling and plays a central role in embryogenesis and tissue homeostasis.[38] FGE (37 kDa) is the only known activator of human sulfatases, and its stability is susceptible to modification of its cysteines.[39] […]
Human β-catenin armadillo domain. β-catenin sequence was amplified by PCR (KOD DNA polymerase, Merck Millipore) from plasmid templates and cloned into bacterial expression vectors by restriction - free cloning. All plasmids were verified by sequencing. For protein pro duction, bacterial expression vector pLipK-ARD (residues 150 – 662) was used. 6xHis-Lip-tagged recombinant proteins were purified from BL21(DE3) pRARE2 E. coli bacterial strains. Bacteria were grown in LB media supplemented with appropriate antibiotic to OD600 0.6, then dropped to a lower temperature (16 – 24 °C) and induced at OD600 0.8 by addition of 0.4 mM isopropyl β -D-1-thiogalactopyranoside (IPTG). Proteins were expressed overnight and bacteria were subsequently harvested by centrifugation, cell pelle ts shock-frozen in liquid nitrogen and stored at -80°C until use. Cell pellets were re -suspended in lysis buffer (25 mM Tris -HCl pH 8, 200 mM NaCl, 20 mM imidazole, 10 μg/mL DNAse, EDTA -free protease inhibitor cocktail) and lysed with an Emulsiflex C-3 (Avestin). Lysates were cleared by ultracentrifugation (140,000x rcf, 30 minutes, 4°C) and mixed with Ni-NTA agarose. Beads were washed multiple times with lysis buffer, and 6xHisLip - tagged protein was eluted with lysis buffer supplemented with 500 mM imidazo le. The protein was further purified by SEC on a HiPrep26/60 G200 (GE Healthcare) into the final buffer of 200 mM NaCl, 25 mM Tris pH 7.4, 0.06% NaN3, 1 mM DTT, and protein purity was assessed by SDS -PAGE. Pure protein fractions were concentrated using a 1 0 kDa MWCO Vivaspin 20 concentrator (Sartorius) to 17 – 28 mg/mL, then shock frozen as droplets in liquid nitrogen and stored at -80°C until use. […]

[3] = pH 6.5, by NMR, KPi buffer, 5% DMSO-d6
[4] = pH 7.0, by NMR, KPi buffer, 5% DMSO-d6
[5] = pH 7.0, ratio to rate constant of 4q, acceleration (+) or deceleration (-)
[6] = pH 6.5, measured by UV titrations
[7] = pH 7.0, measured by UV titrations
[8] = pH 7.0, ratio to 4q, from value measured by UV titrations (footnote a)

| SMILES | solubility [2] [µM] | ΔTm at 100 µM (β-catenin ARD) [°C] | k [1] [M⁻¹ s⁻¹] | rate constant (k) for the reaction with GSH [1, 3] | rate constant (k) for the reaction with GSH [1, 4] [M⁻¹ s⁻¹] | k change (vs ref) [1, 5] | k/kref [1] | ΔΔG≠1exp [1] [kcal/mol] | rate constant (k) for the reaction with GSH [1, 6] [M⁻¹ s⁻¹] | rate constant (k) for the reaction with GSH [1, 7] [M⁻¹ s⁻¹] | k change (vs ref) [1, 8] | second order rate constant k with GSH ([1]; pH 7.0, KPi buffer) | times faster at pH 7.0 vs 6.5 ([1]; GSH) | times slower with GSH than with NACME ([1]; pH 7.0) |
| --- | --- | --- | --- | --- | --- | --- | --- | --- | --- | --- | --- | --- | --- | --- |
| Cc1cc(C)nc(S(C)(=O)=O)n1 [4a] | ≥ 2000 | -0.1 ± 0.1 | 0.0010 | 0.00038 ± 8e-05 M⁻¹ s⁻¹ | 0.001 | -25 fold | 0.040 | 1.91 | – | – | – | – | – | – |
| COc1ccnc(S(C)(=O)=O)n1 [4b] | ≥ 2000 | -0.1 ± 0.1 | 0.0045 | 0.0013 ± 0.0008 M⁻¹ s⁻¹ | 0.0045 ± 0.0005 | -6 fold | 0.18 | 1.03 | – | – | – | – | – | – |
| CS(=O)(=O)c1nccc(C(=O)O)n1 [4d] | ≥ 2000 | -0.1 ± 0.1 | 0.0050 | 0.0015 M⁻¹ s⁻¹ | 0.005 | -5 fold | 0.20 | 0.956 | – | – | – | – | – | – |
| CS(=O)(=O)c1nccc(-c2ccccc2)n1 [4e] | < 2000 | -0.1 ± 0.1 | – | 0.002 ± 0.0005 M⁻¹ s⁻¹ | 0.005 | -5 fold | – | – | – | – | – | – | – | – |
| COc1cc(OC)nc(S(C)(=O)=O)n1 [4f, 4,6-dimethoxy-2-methylsulfonylpyrimidine] | ≥ 2000 | -0.1 ± 0.1 | 0.010 | 0.003 ± 0.0005 M⁻¹ s⁻¹ | 0.01 | -3 fold | 0.40 | 0.55 | – | – | – | – | – | – |
| CS(=O)(=O)c1ncc(Br)c(C(=O)O)n1 [4i] | – | -0.1 ± 0.1 | – | 0.075 ± 0.035 M⁻¹ s⁻¹ | 0.3 ± 0.013 | +12 fold | – | – | 0.15 ± 0.09 | 0.64 ± 0.009 | +26 fold | – | – | – |
| CS(=O)(=O)c1nccc(C(N)=O)n1 [4j] | – | -0.3 ± 0.3 | – | 0.095 ± 0.015 M⁻¹ s⁻¹ | 0.3 ± 0.0025 | +12 fold | – | – | – | – | – | – | – | – |
| COC(=O)c1ccnc(S(C)(=O)=O)n1 [4k] | ≥ 2000 | -0.1 ± 0.1 | 2.8 | 0.26 ± 0.045 M⁻¹ s⁻¹ | – | – | 112 | -2.87 | 0.37 ± 0.063 | 2.8 ± 1.1 | +112 fold | – | – | – |
| CS(=O)(=O)c1nccc(C(F)(F)F)n1 [4l] | ≥ 2000 | -1.7 ± 0.4 | 21 | – | – | – | 840 | -4.06 | 4.9 ± 0.48 | 21 ± 0.6 | +840 fold | ≈ 21 M^–1 s^–1 | – | – |
| CC(C)(C)S(=O)(=O)c1ncccn1 [5a] | ≥ 2000 | -0.1 ± 0.1 | – | Ca. 0.03 mM-1.s-1 | 0.00018 ± 3e-05 | -139 fold | 0.0072 | 2.87 | – | – | – | – | – | – |
| Nc1ccc(S(=O)(=O)c2ncccn2)cc1 [5b] | ≥ 2000 | -0.1 ± 0.1 | 0.0050 | 0.002 M⁻¹ s⁻¹ | 0.005 | -5 fold | 0.20 | 0.956 | – | – | – | – | – | – |
| CCCCS(=O)(=O)c1ncccn1 [5c] | ≥ 2000 | -0.1 ± 0.1 | – | 0.0028 ± 0.0003 M⁻¹ s⁻¹ | 0.01 | -3 fold | – | – | – | – | – | – | – | – |
| O=S(=O)(c1ccccc1)c1ncccn1 [5d] | ≥ 2000 | -0.1 ± 0.1 | 0.035 | 0.01 ± 0.005 M⁻¹ s⁻¹ | 0.035 ± 0.015 | ≈ | 1.4 | -0.198 | – | – | – | – | – | – |
| O=S(=O)(CC(F)(F)F)c1ncccn1 [5e] | ≥ 2000 | -6.9 ± 1 | 0.23 | 0.04 ± 0.005 M⁻¹ s⁻¹ | 0.23 ± 0.05 | +9 fold | 9.2 | -1.29 | – | – | – | – | – | – |

More lines, main results first:

| solubility [2] [µM] | ΔTm at 100 µM (β-catenin ARD) [°C] | SMILES | k [1] [M⁻¹ s⁻¹] | rate constant (k) for the reaction with GSH [1, 3] | rate constant (k) for the reaction with GSH [1, 4] [M⁻¹ s⁻¹] | k change (vs ref) [1, 5] | k/kref [1] | ΔΔG≠1exp [1] [kcal/mol] | rate constant (k) for the reaction with GSH [1, 6] [M⁻¹ s⁻¹] | rate constant (k) for the reaction with GSH [1, 7] [M⁻¹ s⁻¹] | k change (vs ref) [1, 8] | second order rate constant k with GSH ([1]; pH 7.0, KPi buffer) | times faster at pH 7.0 vs 6.5 ([1]; GSH) | times slower with GSH than with NACME ([1]; pH 7.0) |
| --- | --- | --- | --- | --- | --- | --- | --- | --- | --- | --- | --- | --- | --- | --- |
| ≥ 2000 | -0.1 ± 0.1 | Cc1ccnc(S(C)(=O)=O)n1 [4c] | 0.0043 | 0.0015 ± 0.0005 M⁻¹ s⁻¹ | 0.0043 ± 0.0008 | -6 fold | 0.17 | 1.05 | – | – | – | – | – | – |
| ≥ 2000 | -0.1 ± 0.1 | CS(=O)(=O)c1nccc(N)n1 [4g] | 0.023 | 0.032 ± 0.006 M⁻¹ s⁻¹ | 0.023 ± 0.003 | ≈ | 0.92 | 0.0502 | – | – | – | – | – | – |
| < 2000 | -0.1 ± 0.1 | CS(=O)(=O)c1ncc(-c2ccccc2)cn1 [4p] | – | 0.01 ± 0.005 M⁻¹ s⁻¹ | 0.012 ± 0.0078 | -2 fold | – | – | – | – | – | – | – | – |
| ≥ 2000 | -0.1 ± 0.1 | CS(=O)(=O)c1ncccn1 [4q, 2-methylsulfonylpyrimidine] | 0.0250 | 0.004 ± 0.0016 M⁻¹ s⁻¹ | 0.025 ± 0.014 | – | 1 | 0 | – | – | – | ≈ 1.6 × 10^–2 M^–1 s^–1; also recorded: ≈ 1.2 × 10^–2 M^–1 s^–1 | approximately 5 times | approximately 3 times |
| ≥ 2000 | -0.7 ± 0.1 | CS(=O)(=O)c1ncc(Br)cn1 [4t] | 0.29 | 0.056 ± 0.034 M⁻¹ s⁻¹ | 0.29 ± 0.25 | +12 fold | 12 | -1.46 | – | – | – | – | – | – |
| ≥ 2000 | -0.1 ± 0.1 | CS(=O)(=O)c1ncc(I)cn1 [4u] | – | 0.025 ± 0.01 M⁻¹ s⁻¹ | 0.66 ± 0.01 | +26 fold | – | – | – | – | – | – | – | – |
| ≥ 2000 | -1.3 ± 0.1 | CS(=O)(=O)c1ncc(C(=O)O)cn1 [4v] | 30 | – | – | +1,200 fold | 1200 | -4.3 | 6.7 ± 3.1 | 30 ± 3.2 | – | – | – | – |
| ≥ 2000 | -3.1 ± 0.6 | CS(=O)(=O)c1ncc(C(F)(F)F)cn1 [4x] | 1900 | – | – | +76,000 fold | 76000 | -6.69 | – | – | – | – | – | – |

Reference: article PMC10515483, “Structure–Reactivity Studies of 2-Sulfonylpyrimidines Allow Selective Protein Arylation” (Bioconjugate Chemistry, 2023)
